Test results published in patent US11433013B2, “Peptide for preventing skin damage caused by air pollutants and for anti-aging, and use thereof” (CAREGEN CO., LTD., priority 2019, dated 2022).
No end group written: not given here.

Tested on: CYP1A1
Assay: CYP1A1 gene expression by RT-PCR, HaCaT cells treated with pollutants
Format: cell-based, human
Description: In order to confirm an effect of inhibiting inflow of pollutants into the cells via another method, the cells were treated with TCDD, PM, and CSE, and expression levels of CYP1A1 and COX-2 were confirmed. When the activity of AhR is promoted by the pollutants such as TCDD, the AhR acts as a transcription factor and increases expressions of CYP1A1 and COX-2, and thus a degree of the inflow of the pollutants into the cells and whether the AhR is activated or not may be confirmed by measuring expression levels of CYP1A1 and COX-2 genes. TCDD, PM, and CSE were each used after mixing it with the peptide of the present invention and pre-reacting the mixture on a serum-free media for about 1 hour.
In order to confirm the results of the cells treated with TCDD, first, 78 passages of HaCaT cells were seeded in a 6-well plate at a cell density of 3×10^5/well and cultured for about 16 hours, and then, the culture solution was replaced with a serum-free media, and the resultant was treated with the pre-reacted mixture of TCDD and the peptide for about 2 hours. The treatment included TCDD at a concentration of about 0.1 μM and the peptide at concentrations of about 10 μM, about 50 μM, and about 100 μM, respectively. The negative control was not treated with the peptide but only treated with TCDD, and the positive control was treated with CH223191 at a concentration of about 10 μM and TCDD. The cells were reacted with the mixture for about 2 hours, and RNA was isolated from the resultant. After removing the culture solution, the plate on which the cells were cultured was treated with TRIzol (available from Thermo Fisher Scientific, USA), and a sample including RNA was obtained using a scraper. Then, the sample was treated with chloroform and centrifuged to obtain a supernatant. The supernatant was treated with isopropanol, centrifuged again, and RNA pellets at the bottom were confirmed. Next, the resultant was treated with 70% of ethanol to wash the pellets, and the pellets were sufficiently dried to isolate RNA. […]

SYSGVLFFLK [SEQ ID NO: 1, SYSGVLFFLK]
expression level of CYP1A1 (CSE about 2%, peptide about 10, 50, 100 μM, about 2 hours (FIG. 2C)): decreased as a concentration of the peptide increased
expression level of CYP1A1 (PM about 25 μg/cm^2, peptide about 10, 50, 100 μM, about 2 hours (FIG. 2B)): decreased as a concentration of the peptide increased
expression level of CYP1A1 (TCDD about 0.1 μM, peptide about 10, 50, 100 μM, about 2 hours (FIG. 2A)): decreased as a concentration of the peptide increased
